16 compounds from patent EP0549264A1, “Purified para-nitrobenzyl esterase from bacillus” (OKLAHOMA STATE UNIVERSITY, priority 1991, dated 1993) can be followed below.

Where two headings read alike, the source gives them in different places.

The target in experiment [1] is T1, PNB esterase (Bacillus subtilis, UniProt P37967).
T1 construct: A culture of Bacillus subtilis NRRL B-8079 was harvested and frozen by conventional methods; made in house; host or cells: Bacillus subtilis NRRL B-8079 (natural producer; enzyme purified from cell-free extract)
T1 sequence (P37967 1-489): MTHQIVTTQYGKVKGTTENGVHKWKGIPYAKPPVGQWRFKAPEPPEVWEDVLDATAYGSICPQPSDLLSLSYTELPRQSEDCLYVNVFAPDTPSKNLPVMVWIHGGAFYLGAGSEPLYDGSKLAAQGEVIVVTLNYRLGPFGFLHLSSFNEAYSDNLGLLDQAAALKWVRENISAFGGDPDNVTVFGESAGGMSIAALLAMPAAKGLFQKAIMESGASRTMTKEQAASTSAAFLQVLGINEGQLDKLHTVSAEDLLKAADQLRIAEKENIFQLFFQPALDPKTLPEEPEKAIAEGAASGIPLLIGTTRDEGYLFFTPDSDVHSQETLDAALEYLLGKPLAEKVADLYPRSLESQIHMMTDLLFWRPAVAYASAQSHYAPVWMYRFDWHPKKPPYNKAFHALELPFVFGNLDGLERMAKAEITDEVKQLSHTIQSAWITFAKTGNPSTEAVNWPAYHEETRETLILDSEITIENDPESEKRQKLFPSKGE
The experiment can be described thus: PNB esterase activity assay (HPLC, method of Example 1D), effect of inhibitors. Type of experiment: biochemical.

The target of experiment [2] is T1, PNB esterase. In words: Substrate specificity comparison of native and recombinant PNB esterase. The class given is biochemical. The settings on record: both native enzyme and enzyme from recombinant Escherichia coli. The procedure: A 1 ml reaction mixture containing 5 µmoles Bis-Tris-Propane-HCl, pH 6.5, 0.5 µmole substrate (loracarbef PNB ester, or cefaclor PNB ester), and appropriate amounts of enzyme solution was incubated at 37°C in a constant-temperature shaker for 30 minutes The reaction was stopped by the addition of an equal volume of acetonitrile. The mixture was then centrifuged to remove the protein and the supernatant solution was analyzed by high performance liquid chromatography (HPLC) for product formation and substrate disappearance. The HPLC was performed in a C-18 reverse-phase column (Nova-Pak C₁₈ radial-pak cartridge (8 X 100 mm), Millipore Bedford, MA) with a linear gradient formed by Buffer A containing 80% of 1 mM Triethylamine-HCl, pH 2.5 and 20% methanol and Buffer B containing methanol, at a flow rate of 1 ml/minutes
The HPLC system used was a Varian HPLC system including a Vista 5560 unit (Varian Associates, Sugar Land TX) and a model 230-401 auto-sampling injector (Gilson Medical Electronics, Middleton, WI.). The PNB esterase activity was determined by monitoring product formation at 254 nm.
The PNB esterase purified from recombinant Escherichia coli was compared to the native enzyme by molecular weight, Western blot analysis, and substrate specificity.
Measurements of molecular weight gave values of 54,000 for enzyme from the two sources, and identical precipitin bands were obtained when the two enzyme preparations were tested using antibody prepared against native purified esterase. Both enzymes hydrolyzed cefaclor PNB ester, cefaclor nucleus PNB ester, loracarbef PNB ester, and loracarbef nucleus PNB ester. The native PNB esterase and the corresponding PNB esterase produced in recombinant E. coli strains appear functionally identical and structually the same at macroscale.

Take `CCOC(=O)OC(=O)OCC` [Diethylpyrocarbonate]: on PNB esterase [1], the “PNB esterase activity inhibited (in words)” value is on record as “strongly inhibited” and 1000 µM produced 100% inhibition. Turning to `[Cl][Hg][Cl]` [HgCl₂], on PNB esterase [1], the “Inhibition (%)” value is 100% and the “PNB esterase activity inhibited (in words)” value is reported as “moderately inhibited”. The compound `O=C(O)CN(CCN(CC(=O)O)CC(=O)O)CC(=O)O` [EDTA, ethylenediamine tetraacetic acid] returned an inhibition at 1000 µM on PNB esterase [1] of 0%. As to `CC(=O)[O-].CC(=O)[O-].[Zn+2]` [Zn(OCOCH₃)₂], at PNB esterase [1], the “Inhibition (%)” value was 97%. The same measure, in the same setting: the figure for `O=S(=O)([O-])[O-].[Fe+2]` [FeSO4] is 100%. Take `N[C@@H](C(=O)N[C@@H]1C(=O)N2C(C(=O)OCc3ccc([N+](=O)[O-])cc3)=C(Cl)CC[C@H]12)c1ccccc1` [loracarbef PNB ester]: at PNB esterase [2], the “hydrolysis by PNB esterase” value was “hydrolyzed”. For `O=S(=O)(F)Cc1ccccc1` [Phenylmethylsulfonylfluoride], at PNB esterase [1], the “PNB esterase activity inhibited (in words)” value is reported as “strongly inhibited”. Take `C(=NC1CCCCC1)=NC1CCCCC1` [Dicyclohexyl carbodiimide]: on PNB esterase [1], the “PNB esterase activity inhibited (in words)” value is “moderately inhibited” and 1000 µM produced 78% inhibition. In the same order, the values of `O=CC(=O)c1ccccc1` [Phenylglyoxal] are “moderately inhibited” and 91%. For the compound Diethyl p-nitrophenylphosphate, at PNB esterase [1], the “Inhibition (%)” value came to 100% and the “PNB esterase activity inhibited (in words)” value is given as “strongly inhibited”. Consider `N[C@@H]1C(=O)N2C(C(=O)OCc3ccc([N+](=O)[O-])cc3)=C(Cl)CS[C@H]12` [cefaclor nucleus PNB ester], for which the “hydrolysis by PNB esterase” value at PNB esterase [2] is “hydrolyzed”.

With `N[C@@H](C(=O)N[C@@H]1C(=O)N2C(C(=O)OCc3ccc([N+](=O)[O-])cc3)=C(Cl)CS[C@H]12)c1ccccc1` [cefaclor PNB ester], the “hydrolysis by PNB esterase” value at PNB esterase [2] is recorded as “hydrolyzed”. For the compound `O=C(O)c1cc(SSc2ccc([N+](=O)[O-])c(C(=O)O)c2)ccc1[N+](=O)[O-]` [5,5'-Dithiobis(2-nitrobenzoic acid)], the inhibition at 1000 µM on PNB esterase [1] was determined as 69%. Besides, the “PNB esterase activity inhibited (in words)” value at PNB esterase [1] (summary in words of Table 2, compounds at 1 mM) is listed as “moderately inhibited”. For `N[C@@H]1C(=O)N2C(C(=O)OCc3ccc([N+](=O)[O-])cc3)=C(Cl)CC[C@H]12` [loracarbef nucleus PNB ester], on PNB esterase [2], the “hydrolysis by PNB esterase” value is given as “hydrolyzed”. In the case of `OCCS` [2-Mercaptoethanol], the inhibition at 1000 µM against PNB esterase [1] came to 0%.

For the compound `O=C(NC(Cc1ccccc1)C(=O)Nc1ccc2ccccc2c1)c1ccccc1` (centres unmarked) [N-benzoyl phenylalanine naptylamide], at PNB esterase [1], the “Inhibition (%)” value is listed as 66% and the “PNB esterase activity inhibited (in words)” value is “moderately inhibited”.
